Tests used:
[1] = test system: H358 cells; assay: H358 cell proliferation inhibition (CellTiter-Glo luminescent cell viability assay); type: cell-based; details: Homo sapiens, NCI-H358, 168 h, 7 days
Method in brief: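 H358 cells seeded at 3000 cells/well in RPMI1640/10% FBS, treated with compound for 7 days at 37 °C/5% CO2. Viability read by CellTiter-Glo 3D luminescence, normalised to cell-free (100%) and compound-free (0%) controls; IC50 fitted from 8 concentrations by four-parameter curve.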

[2] = biological target: T1, CYP2C9 (Homo sapiens, UniProt P11712); assay: CYP2C9 enzymatic activity inhibition in human liver microsomes; type: in vitro ADME; details: IC50, human liver microsome, substrate diclofenac
T1 construct: Human liver microsome (Corning 452117); tissue Corning 452117; host or cells: human liver microsomes
Experimental: The inhibition of CYP2C9, CYP2D6, and CYP3A4 enzymatic activity by the compound of the present invention was determined using the following method. • I. Experimental materials and instruments • 1. Human liver microsome (Corning 452117) • 2. Na2HPO4 (Sigma SLBZ6180) • 3. KH2PO4 (Sigma SLBT6559) • 4. NADPH (Solarbio 705Y021) • […] • 6. Positive substrates diclofenac (Sigma SLBV3438), dextromethorphan (TRC 3-EDO-175-1), and midazolam (Cerilliant FE01161704) • 7. Positive inhibitors sulfaphenazole (D. Ehrenstorfer GmbH 109012), quinidine (TCI WEODL-RE), and ketoconazole (Sigma 100M1091V) • 7. AB Sciex Triple Quad 5500 liquid chromatography-mass spectrometry system • II. Procedures • 1. Preparation of 100 mM phosphate-buffered saline (PBS): 7.098 g Na2HPO4 was weighed. 500 mL pure water was added. The mixture was dissolved by sonication to give solution A. 3.400 g KH2PO4 was weighed. 250 mL pure water was added. The mixture was dissolved by sonication to give solution B. The solution A was placed in a stirrer, and the solution B was slowly added until the pH reached 7.4 to prepare the 100 mM PBS buffer. • 2. A 10 mM NADPH solution was prepared with a 100 mM PBS buffer. A 10 mM stock solution of the compound of the present invention was diluted with DMSO to give a compound working solution at a concentration of 200× (6000, 2000, 600, 200, 60, 20, and 0 µM). The positive inhibitor stock solution was diluted with DMSO to give a positive inhibitor working solution at a concentration of 200× (sulfaphenazole, 1000, 300, 100, 30, 10, 3, and 0 µM; quinidine/ketoconazole, 100, 30, 10, 3, 1, 0.3, and 0 µM). Substrate working solutions (120 µM diclofenac, 400 µM dextromethorphan, and 200 µM midazolam) at a concentration of 200× were prepared with water, acetonitrile, or acetonitrile/methanol. • 3. […]
The values were calculated by Excel XLfit 5.3.1.3 to obtain IC50 values for the compounds of the present invention against CYP2C9, CYP2D6, and CYP3A4 as shown in Table 8. […]

T1 sequence (P11712 whole entry): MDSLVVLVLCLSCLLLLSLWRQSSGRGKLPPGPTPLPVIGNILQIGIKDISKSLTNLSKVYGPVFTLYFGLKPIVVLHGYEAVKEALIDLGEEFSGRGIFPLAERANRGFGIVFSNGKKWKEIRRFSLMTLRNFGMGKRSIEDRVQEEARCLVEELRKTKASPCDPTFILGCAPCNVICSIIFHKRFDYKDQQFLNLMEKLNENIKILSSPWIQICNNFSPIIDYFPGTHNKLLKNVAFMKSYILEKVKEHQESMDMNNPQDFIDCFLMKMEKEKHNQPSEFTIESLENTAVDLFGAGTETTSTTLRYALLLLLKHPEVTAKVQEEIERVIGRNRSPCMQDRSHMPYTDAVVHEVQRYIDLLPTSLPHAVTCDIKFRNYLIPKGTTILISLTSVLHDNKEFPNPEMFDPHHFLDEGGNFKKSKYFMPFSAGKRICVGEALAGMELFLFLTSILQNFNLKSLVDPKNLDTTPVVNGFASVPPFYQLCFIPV

Row | IC50 [1] [nM] | SMILES | IC50 [2] [nM]
1 | 12.3 | Cc1nc(N[C@H](C)c2cccc(C(F)F)c2F)c2cn(C3(CF)CC3)c(=O)c(N3CCOCC3)c2n1 [Example 34, (R)-4-((1-(3-(difluoromethyl)-2-fluorophenyl)ethyl)amino)-6-(1-(fluoromethyl)cyclopropyl)-2-methyl-8-morpholinylpyrido[4,3-d]pyrimidine-7(6H)-one] | 
2 | 98.2 | COc1c(=O)n(N2CCOCC2)cc2c(N[C@H](C)c3cccc(C(F)F)c3F)nc(C)nc12 [Example 20, (R)-4-((1-(3-(difluoromethyl)-2-fluorophenyl)ethyl)amino)-8-methoxy-2-methyl-6-morpholinepyrido[4,3-d]pyrimidine-7(6H)-one] | 
3 | 118 | [2H]C([2H])([2H])Oc1c(=O)n(C2(CF)CC2)cc2c(N[C@H](C)c3cccc(C(F)F)c3F)nc(C)nc12 [Example 23, (R)-4-((1-(3-(difluoromethyl)-2-fluorophenyl)ethyl)amino)-6-(1-(fluoromethyl)cyclopropyl)-8-(methoxy-d3)-2-methylpyrido[4,3-d]pyrimidine-7(6H)-one] | > 30000

Row | SMILES | IC50 [1] [nM] | IC50 [2] [nM]
4 | [2H][C@](C)(Nc1nc(C)nc2c(N3CCOCC3)c(=O)n(C3(CF)CC3)cc12)c1cccc(C(F)F)c1F [Example 55, (R)-4-((1-(3-(difluoromethyl)-2-fluorophenyl)ethyl-1-d)amino)-6-(1-(fluoromethyl)cyclopropyl)-2-methyl-8-morpholinylpyrido[4,3-d]pyrimidine-7(6H)-one] | 24.3 | > 30000
5 | Cc1nc(N[C@H](C)c2cccc(C(F)F)c2F)c2cn(C3(CF)CC3)c(=O)c(N3CCOC[C@@H]3C)c2n1 [Example 40, 4-(((R)-1-(3-(difluoromethyl)-2-fluorophenyl)ethyl)amino)-6-(1-(fluoromethyl)cyclopropyl)-2-methyl-8-((S)-3-methylmorpholine)pyrido[4,3-d]pyrimidine-7(6H)-one] | 14.2 | > 30000

Source: patent EP4417607A1, “HETEROCYCLIC COMPOUND AS SOS1 INHIBITOR AND USES THEREOF” (Nanjing Zaiming Pharmaceutical Co., Ltd., priority 2021, dated 2023)
